Results: US20040186166A1, “Cannabinoid analogs as peroxisome proliferator activated nuclear receptor gamma activators” (priority 2002, published 2004)

Assays:
[1] = target: T1, PPARδ (Mus musculus, UniProt P35396); test: Partial protease (trypsin) digestion assay, PPARδ; format: binding; settings: 2, 20 and 100 μM AJA
T1 construct: expressed in transfected cells; host or cells: HEK293 / HEK293T
T1 sequence (P35396 1-440): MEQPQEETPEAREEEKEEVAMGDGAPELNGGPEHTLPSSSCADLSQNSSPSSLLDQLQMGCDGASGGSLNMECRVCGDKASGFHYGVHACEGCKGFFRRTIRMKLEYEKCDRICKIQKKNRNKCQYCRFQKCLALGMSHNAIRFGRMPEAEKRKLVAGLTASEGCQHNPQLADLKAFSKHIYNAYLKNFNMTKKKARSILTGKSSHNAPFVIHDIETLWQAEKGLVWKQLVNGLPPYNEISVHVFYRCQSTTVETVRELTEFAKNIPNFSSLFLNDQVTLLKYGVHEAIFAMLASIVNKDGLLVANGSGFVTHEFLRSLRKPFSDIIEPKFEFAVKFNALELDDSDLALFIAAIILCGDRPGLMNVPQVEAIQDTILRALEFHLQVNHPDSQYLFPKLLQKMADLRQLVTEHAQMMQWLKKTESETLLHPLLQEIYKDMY
Method: Partial protease digestion was carried out as described by Leng et. al. (J Steroid Biochem Mol Biol 46:643-61, 1993). PPAR proteins were made by in vitro transcription/translation reactions in reticulocyte lysate according to the manufacture's instructions (Promega). AJA, GW347845, or vehicle alone was incubated with the 35S-labeled PPARs at room temperature for one hour before trypsin digestion. Reactions were stopped by boiling in SDS-containing sample buffer, and lysates were subjected to SDS-PAGE and autoradiography.
The PPAR proteins were synthesized and labeled with ^35S-methionine in reticulocyte lysate and incubated with AJA, GW347845, or vehicle alone at room temperature for one hour before trypsin digestion. The reactions were terminated by boiling in SDS-containing protein sample buffer. The proteolytic patterns of PPAR proteins were then analyzed by SDS-PAGE and autoradiography, and compared with vehicle-treated control samples.
The AJA concentrations required to protect PPARγ from trypsin digestion were further measured.

[2] = target: T2, human PPARγ (Homo sapiens, UniProt P37231); test: Gal4-dependent MH100-Luc reporter, human PPARγ; format: cell-based; settings: compared with mouse PPARγ
T2 construct: The Gal4-hPPAR LBD constructs were obtained from GlaxoSmithKline; host or cells: HEK293
T2 sequence (P37231 238-503 limits assumed): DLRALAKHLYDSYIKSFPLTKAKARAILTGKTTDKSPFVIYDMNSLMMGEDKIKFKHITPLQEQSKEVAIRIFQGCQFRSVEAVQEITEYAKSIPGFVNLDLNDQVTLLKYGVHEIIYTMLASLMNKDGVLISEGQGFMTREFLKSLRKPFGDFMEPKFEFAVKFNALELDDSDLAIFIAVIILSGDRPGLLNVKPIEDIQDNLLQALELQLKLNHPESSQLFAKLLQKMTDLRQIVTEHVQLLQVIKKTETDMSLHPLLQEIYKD
Method: (§1) The pGEX-DRIP205 (527˜970) was obtained from the Sloan-Kettering Cancer Center. The Gal4-hPPAR LBD constructs were obtained from GlaxoSmithKline, Research Triangle Park, NC. The IL8-Luciferase reporter was obtained from Celgene, San Diego, Calif. The plasmids mPPARα, mPPARγ1, mPPARδ , and hRXRα were in the pCMX vector (Umesono et al., Cell 65:1255-1266, 1991).
(§2) For PPARγ activation assay, HEK293 cells were plated in 12-well cell culture plates and maintained in Dulbecco's modified Eagle's medium (DMEM) supplemented with 10% fetal bovine serum (FBS) at 37° C. under 5% CO2. […] The average normalized luciferase activity was determined via triplicate experiments. […]
(§3) To further confirm activation of PPARγ by AJA, and also to determine PPARγ species specificity, the ability of AJA to activate the chimeric Gal4-DBD/PPAR fusion proteins on a Gal4-dependent MH100-Luc reporter was assessed (FIG. 4A). The PPARs were expressed as Gal4 DBD fusion proteins, which bind to the UAS promoter containing 4 copies of a synthetic Gal4 binding site upstream of the minimal thymidine kinase (TK) promoter. […] Transfected cells were treated with increasing concentrations of AJA from 10-60 μM and the luciferase activities were determined in triplicate experiments. […]

[3] = target: T3, human PPARδ (Homo sapiens, UniProt Q03181); test: Gal4-dependent MH100-Luc reporter, human PPARδ; format: cell-based
T3 construct: The Gal4-hPPAR LBD constructs were obtained from GlaxoSmithKline; host or cells: HEK293
T3 sequence (Q03181 211-439 limits assumed): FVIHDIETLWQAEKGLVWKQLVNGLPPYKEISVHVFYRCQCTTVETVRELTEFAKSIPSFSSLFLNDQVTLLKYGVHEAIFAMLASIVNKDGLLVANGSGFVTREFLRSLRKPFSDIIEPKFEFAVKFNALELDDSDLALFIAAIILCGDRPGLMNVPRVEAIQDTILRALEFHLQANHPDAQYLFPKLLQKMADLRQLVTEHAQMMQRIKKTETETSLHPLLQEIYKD
Method: as §1, §2, §3

Compound: CCCCCCC(C)(C)c1cc(O)c2c(c1)OC(C)(C)[C@@H]1CC=C(C(=O)O)C[C@@H]21 [AJA, dimethylheptyl-THC-11-oic acid]
- proteinase sensitivity of PPARδ [1]: did not affect the proteinase sensitivity
- activation of human PPARγ [2]: activates human PPARγ as efficiently as mouse PPARγ
- activation of human PPARδ [3]: did not activate
